We go through 10 compounds from patent US5089506A, “Ethanobicyclic amine derivatives for CNS disorders” (G. D. Searle & Co., priority 1990, dated 1992).

One experiment deals with NMDA receptor. The settings on record: C. Carter et al, J. Pharm Exp. Ther., 247(3), 1222-1232 (1988); cited from earlier work.
The next experiment concerns the target T1, sigma receptor (Rattus norvegicus, UniProt Q9R0C9).
T1 construct: crude membrane preparations were prepared as follows; Brains from male Sprague-Dawley rats; from tissue; host or cells: whole brain of male Sprague-Dawley rats, crude membranes
Nature of the experiment: Radioreceptor assay: sigma receptor binding (displacement of [3H]-3-(+)-PPP) in crude rat brain membranes. More on the design: species or system male Sprague-Dawley rats. As for the experimental part: To determine the effects of the compounds in a sigma receptor assay, crude membrane preparations were prepared as follows. Brains from male Sprague-Dawley rats were homogenized in 10 volumes (wt/vol) of 0.32M sucrose, using a Polytron grinder. The homogenate was centrifuged at 900×g for 10 minutes at 4° C. The supernatant was collected and centrifuged at 22,000×X g for 20 minutes at 4° C. The pellet was resuspended in 10 volumes of 50 mM Tris/HCl buffer (pH 7.4) and centrifuged at 22,000×g for 20 minutes at 4° C. The pellet was resuspended in 5 mM Tris/HCl buffer (pH 7.4) to give a final concentration of 250 mg/ml of the crude material. Incubation tubes were prepared in triplicate and contained 0.1 ml of tissue suspension, 2 nM of [^3 H]-(+)-1-propyl-3-(3-hydroxyphenyl)piperidine [^3 H]-3-(+)-PPP, and varying concentrations of the displacing ligand (0.1-1000 nM) in a final volume of 0.5 ml. After a 1 hr incubation at room temperature, the contents of the test tubes were filtered through GS filter paper which had been presoaked for at least 2 hours in 0.05% polyethyleneimine. The test tubes were rinsed three times with Tris/HCl buffer. Radioactivity on the filters was determined using liquid scintillation spectrometry and inhibition curves were calculated according to the method of Cheng and Prusoff [Biochem. Pharmacol., 22, 3099-3108 (1973)].

The test system of experiment [1] is N-allylnormetazocine-induced stereotyped behavior. The experiment in a line: Blockade of agonist (N-allylnormetazocine)-induced stereotyped behavior and ataxia. The experiment is classed as in vivo. The settings on record: ip, N-allylnormetazocine 15 mg/kg i.p. Here is the method:
Compounds of the invention were evaluated for their ability to block the effects of N-allylnormetazocine on the induction of stereotyped behavior and ataxia. To test for antagonism, drugs are administered at varying times before i.p. administration of 15 mg/kg of N-allylnormetazocine. Behavioral and ataxia ratings are taken at 2.5 minutes, 5 minutes, and every 5 minutes thereafter until the animal returns to control behavior. […] The lowest dose of the test compound which is capable of blocking the stereotyped behavior and ataxia induced by N-allylnormetazocine was determined.

Setting [2] is: test compound i.p. (route given for the 1 mg/kg dose), read-out: dose which fully blocked N-allylnormetazocine-induced stereotyped behavior (lowest dose capable of blocking).
[3] abbreviates: [3H]-3-(+)-PPP 2 nM, rat brain crude membranes, 1 hr, room temperature, ± SEM, Table II, read-out: Ki apparent (units ± SEM).

Like-named read-outs stand apart in the source and are kept apart here.

T1 sequence (Q9R0C9 whole entry): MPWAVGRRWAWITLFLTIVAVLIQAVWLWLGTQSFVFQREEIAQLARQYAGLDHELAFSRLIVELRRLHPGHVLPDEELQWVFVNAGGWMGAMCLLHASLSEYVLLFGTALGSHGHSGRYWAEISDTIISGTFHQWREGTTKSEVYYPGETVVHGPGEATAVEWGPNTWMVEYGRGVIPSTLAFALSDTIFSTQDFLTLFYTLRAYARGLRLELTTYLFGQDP

Consider `CC(C(O)c1ccc(O)cc1)N1CCC(Cc2ccccc2)CC1` (centres unmarked) [ifenprodil], for which, in the experiment with NMDA receptor, the “found to be non-competitive NMDA receptor antagonists” value was “non-competitive NMDA receptor antagonists”. The compound `c1ccc2c(c1)C1CC(CN3CCCCC3)C2C1` (centres unmarked) [Compound No. 5, 1-(2-Benzobicyclo[2.2.1]heptenyl)methylpiperidine] had a Ki on sigma receptor of 9 ± 4 nM. Also, in experiment [1] (setting [2]), the minimal effective dose came out at 1 mg/kg. Regarding `c1ccc2c(c1)C1CCC2C(N2CCCCC2)C1` (centres unmarked) [Compound No. 1, 1-(2-Benzobicyclo[2.2.2]octenyl)piperidine], the Ki on sigma receptor (setting [3]) turned out to be 137 ± 9 nM. As to “1-(4-chlorophenyl)-2-[1-(4-fluorophenyl)piperidinyl]ethanol”, the “found to be non-competitive NMDA receptor antagonists” value in the experiment with NMDA receptor is given as “non-competitive NMDA receptor antagonists”. Take `CN1CCN(CC2CC3CC2c2ccccc23)CC1` (centres unmarked) [Compound No. 7, 1-(2-benzobicyclo[2.2.1]-heptenyl)methyl-4-methylpiperazine]: at sigma receptor, the Ki came to 22000 ± 2000 nM. As for `CN1CCN(C2CC3CCC2c2ccccc23)CC1` (centres unmarked) [Compound No. 4, 1-(2-benzobicyclo[2.2.2]octenyl)-4-methylpiperazine], the Ki at sigma receptor (setting [3]) was 170 ± 40 nM.

Regarding `c1ccc2c(c1)C1CC2C(N2CCCCC2)C1` (centres unmarked) [Compound No. 6, 1-(2-Benzobicyclo[2.2.1]heptenyl)piperidine], at sigma receptor, the Ki turned out to be 0.075 ± 0.06 nM. In experiment [1] (read-out: dose which blocked these same responses (N-allylnormetazocine-induced stereotyped behavior; not stated as fully)), the minimal effective dose was found to be 10 mg/kg. Take `CN1CCN(CC2CC3CCC2c2ccccc23)CC1` (centres unmarked) [Compound No. 3, 1-(2-Benzobicyclo[2.2.2]octenyl)methyl-4-methylpiperazine]: at sigma receptor (setting [3]), the Ki is 4 ± 2 nM. Further, the minimal effective dose in experiment [1] (setting [2]) is 1 mg/kg. On the same counts, the results for `c1ccc2c(c1)C1CCC2C(CN2CCCCC2)C1` (centres unmarked) [Compound No. 2, 1-(2-Benzobicyclo[2.2.2]octenyl)methylpiperidine] are 11 ± 6 nM and 3 mg/kg. Consider `CN1CCN(C2CC3CC2c2ccccc23)CC1` (centres unmarked) [Compound No. 8, 1-(2-Benzobicyclo[2.2.1]heptenyl)-4-methylpiperazine], for which the Ki at sigma receptor was 943 ± 3 nM.
